Source: article PMC3964211, “Pharmacokinetic modeling optimizes inhibition of the ‘undruggable’ EWS-FLI1 transcription factor in Ewing Sarcoma” (Oncotarget, 2013)

System: A4573 xenografts
Test: IV efficacy experiment, A4573 xenografts, with plasma and tumor drug levels
Type: in vivo, SCID/bg mice
Procedure: The poor oral bioavailability determined from the rat study caused us to focus on IV delivery. Since mice often metabolize compounds differently from rats, we also evaluated the intraperitoneal (IP) PK profle and compared it to the IV profile. We determined pharmacokinetics in C57BL/6 mice given IV (Figure 2A) or IP (Figure 2B) administrations of 75 mg/kg YK-4-279, which was the maximal solubility of compound in 20% Cremophor EL. […] In addition, drug levels in tumor were measured using SCID/bg mice with orthotopic xenografts that were treated with daily IV injections of (S)-YK-4-279 for 6 days. […]
Twenty Fox Chase SCID beige mice per sex were inoculated with 2 million of A4573 cells. Tumor volume was monitored every day by caliper. […]
The plasma and tumor sample analysis was performed using calibration standards and Quality Control (QC) samples prepared in control rat or mouse plasma and tumor tissues. […] The transitions monitored were 366 amu to 135 amu for YK-4-279 and 369 amu to 138 amu for the YK-4-279-d3 internal standard. YK-4-279 concentrations were calculated using peak area response ratios and a regression equation constructed from the concentrations and peak area response ratios of the calibration standards. The lower limit of quantitation was 5.0 ng/mL in plasma and 5.0 ¼g/g in tumor tissue. […]

With `COc1ccc(C(=O)CC2(O)C(=O)Nc3c(Cl)ccc(Cl)c32)cc1` (centres unmarked) [YK-4-279] the “Effect on xenograft tumor growth” value (A4573 xenografts in SCID/bg mice, 75 mg/kg IV QD) was “tumors did not regress nor reduce their growth rate” and the “Plasma levels 2 hours following the final IV bolus dose” value (SCID/bg mice with A4573 xenografts, repeated IV injections) was 1.5–18 ¼M.
